Where a name gives a salt, the structure may show the parent alone. Values belong to the compound of their own block, whether it stands above or below them.
Key:
[1] = test system: Delayed type hypersensitivity (DTH) skin inflammation in Balb/c mice; test: Delayed type hypersensitivity (DTH), oxazolone-induced mouse ear swelling test; type: in vivo; conditions: for % Inflamation (Diff/Base line * 100) / % Inhibition / Difference mm: 24 hours; for inhibition of inflammation: DTH model
Experimental: Delayed type hypersensitivity (DTH), a localized inflammatory reaction induced by cytokines secreted by certain TH cells when they encounter certain types of antigens, is an established experimental model for skin inflammation.
DTH reactions were induced in the abdomen skin of 8 week old female Balb/c mice, weighing 20 g each.
The mice were sensitized first by topical application of 100 μl of a 5% Oxazolone (4-Ethoxymethylene-2-phenyl-2-oxazolin-5-one; Sigma) solution in ethanol/acetone (3:1, vol/vol) to a shaved abdomen. The mice were anesthetized with I.P. injection of 0.2 ml/mouse of a stock solution prepared from Ketamine (1 ml)+Xylazine (1 ml)+Saline (8 ml). The anesthesia was done for the shaving of the abdomen and the first sensitization.
After 4 days the mice were challenged for the second time using 1% Oxazolone (4-Ethoxymethylene-2-phenyl-2-oxazolin-5-one; Sigma) solution in ethanol/acetone (3:1, vol/vol). The solution was pipetted onto the shaved abdomen of the mice.
Six days after the first sensitization, the right ear of each mouse was challenged with topical application of 20 μl (10 μl at each surface of the ear) of a 1% Oxazolone solution in olive oil/acetone (3:1, vol/vol).
Treatment was given 30 min after the elicitation by applying 40 μl (20 μl at each surface of the ear) of treatment compounds, as described before, on the challenged ear of each mouse.
After 24 hours, the extent of inflammation was measured using the mouse ear swelling test (caliper) and the percent inhibition induced by the treatment was quantified.
The experiment includes a positive control group which was administered Dexamethasone 2 mg/mouse, one untreated group as a negative control and one naïve group.
Baseline measurements of the ear were conducted before the first sensitization.

[2] = Racemization in various solvents, S-isomer measured by chiral HPLC; type: physicochemical
Experimental: A sample of (R)-Amino-phenyl-acetic acid octadec-9-(Z)-enyl ester HCl (Compound 2) was suspended in various solvents (2 mg/ml). The compound was 99.7% enantiomerically pure as determined by chiral HPLC. The presence of the S-isomer (compound 1) was measured after various time points. The amount of racemization in terms of percent (relative to compound 1+compound 2) is detailed in Table 2 below.
The presence of the S-isomer (Compound 1) was measured by chiral HPLC after various time points. The amount in terms of percent (relative to compound 1+compound 2) is detailed in the table below.

pKa of the compound = type: physicochemical
[3] = 5 mg/ml, 0.2 mg/mouse topical on challenged ear
[4] = 8 mg/ml, 0.32 mg/mouse topical on challenged ear
[5] = 12.5 mg/ml, 0.5 mg/mouse topical on challenged ear
[6] = 25 mg/ml, 1 mg/mouse topical on challenged ear
[7] = positive control, 50 mg/ml, 2 mg/mouse

Compound: CCCCCCCC/C=C\CCCCCCCCOC(=O)[C@@H](N)c1ccccc1 [Compound 1, (S)-Amino-phenyl-acetic acid octadec-9-(Z)-enyl ester HCl]
- % Inflamation (Diff/Base line * 100) [1, 3]: 87.18%
- % Inhibition [1, 3]: 20.75%
- Difference mm [1, 3]: 0.23 mm
- % Inflamation (Diff/Base line * 100) [1, 4]: 34.76%
- % Inhibition [1, 4]: 68.53%
- Difference mm [1, 4]: 0.09 mm
- % Inflamation (Diff/Base line * 100) [1, 5]: 25.84%
- % Inhibition [1, 5]: 77.86%
- Difference mm [1, 5]: 0.06 mm
- % Inflamation (Diff/Base line * 100) [1, 6]: 17.70%
- % Inhibition [1, 6]: 83.68%
- Difference mm [1, 6]: 0.05 mm
- inhibition of inflammation [1]: provide inhibition of inflammation

- Percent racemization (relative to compound 1 + compound 2) ([2]; 0.1 N HCl, 2 mg/ml, 0 hours): 0.4%
- Percent racemization (relative to compound 1 + compound 2) ([2]; 0.1 N HCl, 2 mg/ml, 1 hour): 0.4%
- Percent racemization (relative to compound 1 + compound 2) ([2]; 0.1 N HCl, 2 mg/ml, 2 hours): 0.4%
- Percent racemization (relative to compound 1 + compound 2) ([2]; 0.1 N HCl, 2 mg/ml, 3 hours): 0.3%
- Percent racemization (relative to compound 1 + compound 2) ([2]; 0.1 N HCl, 2 mg/ml, 4 hours): 0.3%
- Percent racemization (relative to compound 1 + compound 2) ([2]; 0.1 N HCl, 2 mg/ml, 21 hours): 0.3%
- Percent racemization (relative to compound 1 + compound 2) ([2]; 0.9% NaCl solution, 2 mg/ml, 0 hours): 0.9%
- Percent racemization (relative to compound 1 + compound 2) ([2]; 0.9% NaCl solution, 2 mg/ml, 1 hour): 1.2%
- Percent racemization (relative to compound 1 + compound 2) ([2]; 0.9% NaCl solution, 2 mg/ml, 2 hours): 2.3%
- Percent racemization (relative to compound 1 + compound 2) ([2]; 0.9% NaCl solution, 2 mg/ml, 3 hours): 3.3%
- Percent racemization (relative to compound 1 + compound 2) ([2]; 0.9% NaCl solution, 2 mg/ml, 4 hours): 3.0%
- Percent racemization (relative to compound 1 + compound 2) ([2]; 0.9% NaCl solution, 2 mg/ml, 21 hours): 6.0%
- S-isomer (Compound 1) amount in percent (relative to compound 1+compound 2) ([2]; 1% Acetic acid, pH 2.8, 2 mg/ml, 0 hr): 0.7%
- S-isomer (Compound 1) amount in percent (relative to compound 1+compound 2) ([2]; 1% Acetic acid, pH 2.8, 2 mg/ml, 1 hr): 2.0%
- S-isomer (Compound 1) amount in percent (relative to compound 1+compound 2) ([2]; 1% Acetic acid, pH 2.8, 2 mg/ml, 2 hr): 3.6%
- S-isomer (Compound 1) amount in percent (relative to compound 1+compound 2) ([2]; 1% Acetic acid, pH 2.8, 2 mg/ml, 3 hr): 5.2%
- S-isomer (Compound 1) amount in percent (relative to compound 1+compound 2) ([2]; 1% Acetic acid, pH 2.8, 2 mg/ml, 4 hr): 6.6%
- S-isomer (Compound 1) amount in percent (relative to compound 1+compound 2) ([2]; Acetate Buffer, pH 3.5, 2 mg/ml, 0 hr): 0.3%
- S-isomer (Compound 1) amount in percent (relative to compound 1+compound 2) ([2]; Acetate Buffer, pH 3.5, 2 mg/ml, 1 hr): 3.3%
- S-isomer (Compound 1) amount in percent (relative to compound 1+compound 2) ([2]; Acetate Buffer, pH 3.5, 2 mg/ml, 2 hr): 6.2%
- S-isomer (Compound 1) amount in percent (relative to compound 1+compound 2) ([2]; Acetate Buffer, pH 3.5, 2 mg/ml, 3 hr): 9.3%
- S-isomer (Compound 1) amount in percent (relative to compound 1+compound 2) ([2]; Acetate Buffer, pH 3.5, 2 mg/ml, 4 hr): 12.1%
- S-isomer (Compound 1) amount in percent (relative to compound 1+compound 2) ([2]; Acetate Buffer, pH 4.0, 2 mg/ml, 0 hr): 0.2%
- S-isomer (Compound 1) amount in percent (relative to compound 1+compound 2) ([2]; Acetate Buffer, pH 4.0, 2 mg/ml, 1 hr): 7.7%
- S-isomer (Compound 1) amount in percent (relative to compound 1+compound 2) ([2]; Acetate Buffer, pH 4.0, 2 mg/ml, 2 hr): 15.2%
- S-isomer (Compound 1) amount in percent (relative to compound 1+compound 2) ([2]; Acetate Buffer, pH 4.0, 2 mg/ml, 3 hr): 22.1%
- S-isomer (Compound 1) amount in percent (relative to compound 1+compound 2) ([2]; Acetate Buffer, pH 4.0, 2 mg/ml, 4 hr): 27.2%
- S-isomer (Compound 1) amount in percent (relative to compound 1+compound 2) ([2]; Acetate Buffer, pH 5.0, 2 mg/ml, 0 hr): 0.2%
- S-isomer (Compound 1) amount in percent (relative to compound 1+compound 2) ([2]; Acetate Buffer, pH 5.0, 2 mg/ml, 1 hr): 6.3%
- S-isomer (Compound 1) amount in percent (relative to compound 1+compound 2) ([2]; Acetate Buffer, pH 5.0, 2 mg/ml, 2 hr): 14.6%
- S-isomer (Compound 1) amount in percent (relative to compound 1+compound 2) ([2]; Acetate Buffer, pH 5.0, 2 mg/ml, 3 hr): 19.0%
- S-isomer (Compound 1) amount in percent (relative to compound 1+compound 2) ([2]; Acetate Buffer, pH 5.0, 2 mg/ml, 4 hr): 25.3%
- S-isomer (Compound 1) amount in percent (relative to compound 1+compound 2) ([2]; Acetate Buffer, pH 5.5, 2 mg/ml, 0 hr): 0.2%
- S-isomer (Compound 1) amount in percent (relative to compound 1+compound 2) ([2]; Acetate Buffer, pH 5.5, 2 mg/ml, 1 hr): 4.7%
- S-isomer (Compound 1) amount in percent (relative to compound 1+compound 2) ([2]; Acetate Buffer, pH 5.5, 2 mg/ml, 2 hr): 8.2%
- S-isomer (Compound 1) amount in percent (relative to compound 1+compound 2) ([2]; Acetate Buffer, pH 5.5, 2 mg/ml, 3 hr): 12.4%
- S-isomer (Compound 1) amount in percent (relative to compound 1+compound 2) ([2]; Acetate Buffer, pH 5.5, 2 mg/ml, 4 hr): 16.4%
- Percent racemization (relative to compound 1 + compound 2) ([2]; PBS, pH 7.4, 2 mg/ml, 0 hours): 0.4%
- Percent racemization (relative to compound 1 + compound 2) ([2]; PBS, pH 7.4, 2 mg/ml, 1 hour): 7.2%
- Percent racemization (relative to compound 1 + compound 2) ([2]; PBS, pH 7.4, 2 mg/ml, 2 hours): 12.3%
- Percent racemization (relative to compound 1 + compound 2) ([2]; PBS, pH 7.4, 2 mg/ml, 3 hours): 15.0%
- Percent racemization (relative to compound 1 + compound 2) ([2]; PBS, pH 7.4, 2 mg/ml, 4 hours): 17.9%
- Percent racemization (relative to compound 1 + compound 2) ([2]; PBS, pH 7.4, 2 mg/ml, 21 hours): 47.0%
- Percent racemization (relative to compound 1 + compound 2) ([2]; Purified water, 2 mg/ml, 0 hours): 0.4%
- Percent racemization (relative to compound 1 + compound 2) ([2]; Purified water, 2 mg/ml, 1 hour): 3.8%
- Percent racemization (relative to compound 1 + compound 2) ([2]; Purified water, 2 mg/ml, 2 hours): 7.2%
- Percent racemization (relative to compound 1 + compound 2) ([2]; Purified water, 2 mg/ml, 3 hours): 10.3%
- Percent racemization (relative to compound 1 + compound 2) ([2]; Purified water, 2 mg/ml, 4 hours): 13.9%
- Percent racemization (relative to compound 1 + compound 2) ([2]; Purified water, 2 mg/ml, 21 hours): 38.2%
- racemization in various aqueous solvents ([2]; various aqueous solvents): undergoes racemization
- pKa (pKa of the compound): 4.2
Compound: CCCCCCCC/C=C\CCCCCCCCOC(=O)[C@H](N)c1ccccc1 [Compound 2, (R)-Amino-phenyl-acetic acid octadec-9-(Z)-enyl ester HCl]
- % Inflamation (Diff/Base line * 100) [1, 3]: 71.13%
- % Inhibition [1, 3]: 39.39%
- Difference mm [1, 3]: 0.17 mm
- % Inflamation (Diff/Base line * 100) [1, 4]: 41.68%
- % Inhibition [1, 4]: 62.12%
- Difference mm [1, 4]: 0.11 mm
- % Inflamation (Diff/Base line * 100) [1, 5]: 50.31%
- % Inhibition [1, 5]: 55.71%
- Difference mm [1, 5]: 0.13 mm
- % Inflamation (Diff/Base line * 100) [1, 6]: 35.01%
- % Inhibition [1, 6]: 68.53%
- Difference mm [1, 6]: 0.09 mm
- inhibition of inflammation [1]: provide inhibition of inflammation

Compound: CCCCCCCC/C=C\CCCCCCCCOC(=O)C(N)c1ccccc1.Cl (racemic) [Racemic, aminophenylacetic acid octadec-(Z)-9-enyl ester HCl, reference compound]
- % Inflamation (Diff/Base line * 100) [1, 3]: 69.43%
- % Inhibition [1, 3]: 38.46%
- Difference mm [1, 3]: 0.18 mm
- % Inflamation (Diff/Base line * 100) [1, 4]: 73.53%
- % Inhibition [1, 4]: 39.98%
- Difference mm [1, 4]: 0.17 mm
- % Inflamation (Diff/Base line * 100) [1, 5]: 43.08%
- % Inhibition [1, 5]: 60.14%
- Difference mm [1, 5]: 0.11 mm
- % Inflamation (Diff/Base line * 100) [1, 6]: 13.68%
- % Inhibition [1, 6]: 87.76%
- Difference mm [1, 6]: 0.04 mm
- inhibition of inflammation [1]: provide inhibition of inflammation

Compound: C[C@@H]1C[C@H]2[C@@H]3CCC4=CC(=O)C=C[C@]4(C)[C@@]3(F)[C@@H](O)C[C@]2(C)[C@@]1(O)C(=O)CO [dexamethasone, Dexamethasone, reference compound]
- % Inflamation (Diff/Base line * 100) [1, 7]: 22.62%
- % Inhibition [1, 7]: 80.42%
- Difference mm [1, 7]: 0.06 mm

— patent US7964751B2, “Enantiomers of amino-phenyl-acetic acid octadec-9-(Z) enyl ester, their salts and their uses” (Yeda Research and Development Co. Ltd., priority 2007, dated 2011)
